According to EP3019008B1, “USE OF AN ISOPROPANOL-CONTAINING SOLUTION TO COMBAT CALCIVIRIDAE” (Schülke & Mayr GmbH, priority 2013, dated 2015):
Like-named read-outs stand apart in the source and are kept apart here.

Tests used:
[1] = system: murine norovirus; test: Modified test EN 1500, hygienic disinfection of the hands of test persons contaminated with virus; assay type: in vivo; settings: 5 test persons
Description: Method B:: Modified test EN 1500 "Hygienic disinfection of the hands"
The test is based upon EN 1500 (practical test method for the hygienic disinfection of the hands).
In the tests, the hands of test persons are contaminated with 3 ml of murine norovirus, namely both the hands of the test persons of the reference group and the hands of the test persons of the test group. A sample is then taken (1 min) before the disinfection. After that, the test persons of each group disinfect their hands with disinfection agent. The test persons of the reference group disinfect twice with 3 ml of a reference product in each case, the reference product being allowed to act for 30 sec and rubbed in after each disinfection. The test persons of the test group instead disinfect twice with 3 ml of the disinfection agent to be tested. After that, a sample is taken […] (1 min), both in the reference group and in the test group.
The test persons of the respective group are then swapped over in a second test.

[2] = system: murine norovirus, strain S 99 Berlin; test: Quantitative suspension test of virucidal effect according to EN 14476 (low stressing); settings: for log reduction at 0.7 %: Norwalk virus, read-out: reduction factor; for log10-TCID50 / 0·1 ml after ... min murine norovirus: reference inactivation, PBS
Description: Method A:Quantitative suspension test of virucidal effect according to EN 14476: Murine norovirus (low stressing)
Methodology:EN 14476:2005-04/A1:2006-10 and PrEN 14476:2011: Chemical disinfection agents and antiseptics - Quantitative suspension test of virucidal effect for chemical disinfection agents and antiseptics used in human medicine, Test methods and requirements (phase 2, stage 1)
In order to achieve the concentration of 97%, 0·1 ml of the virus, 0.2 ml of the 5-fold concentrated stressing substance and 9.7 ml of the product are mixed. After the termination of the exposure time, the effect of the disinfection agent is stopped by dilution (or gel filtration) and a series of dilutions in accordance with the progression 1:10/ 1:100 / 1:1,000 etc. is applied in order to determine the residual virus content. The titration is carried out in the microtitre system on 96-well plates.
Titration method: • Virus titration on cells as monolayers in 96-well microtitration plates. 0.5ml of product test solution is diluted with 4.5 ml of ice-cold DMEM + 2% FBS to a dilution of 10^-8. 100 µl of each dilution was pipetted into 6 wells of the microtitration plate. Method of terminating the effect of the product and reducing the cytotoxicity: • Gel filtration with MicroSpin columns and dilution to 10^-4 within 10 sec with ice-cold DMEM + 2% FBS
The TCID50 was calculated in accordance with the method of Spearman and Kärber. m = xk + d/2−d∑pi [formula] • m = negative logarithm of the titre in relation to the test volume • Xk = logarithm of the smallest dilution stage in which all the test objects react positively • d = logarithm of the dilution factor • pi = observed reaction rate
RF = log(viruscontrol)−log(testproduct) [formula] KRF = sqrt(((2Sm(control)))^2 + ((2Sm(residualtitre)))^2) [formula] • KRF = 95% confidence interval of the reduction factor • Sm = standard deviation of the logarithmized titre

[3] = system: RAW cells ATCC TIB-71; test: Cytotoxicity control (CD50) of the EN 14476 suspension test; design: unit not given beside the values; settings: reference inactivation, PBS
Description: Virus control: The virus titre for the murine norovirus amounted to 7.50 ± 0.47 TCID50 / 0·1 ml and thus to 8.50 ± 0.47 TCID50 / ml. The demonstrable titre reduction thus amounted to ≥ 4.00 lg^10. […] Reference The reduction factor of 0.7% formaldehyde amounted to 2·33 log^10 inactivation after 30 min exposure time and to 3.17 log^10 after 60 min exposure time.

[4] = system: murine norovirus; settings: highest concentration tested of 60% by volume, non-living surfaces, Magulski et al.; cited from earlier work

SMILES: CCO [Ethanol 70% w/w, Ethanol]
- Average after disinfection ([1]; 2 x 30 s with 3 ml each): 3.02 log TCID50/ml
- Average before disinfection ([1]; baseline before disinfection): 5.6 log TCID50/ml
- RF ([1]; reduction factor, 2 x 30 s with 3 ml each): 2.58 log TCID50/ml

SMILES: C=O [Formaldehyde 0·7% (V/V), Formaldehyde]
- log reduction at 0.7 % ([2]; 0.5 h): 2.33
- log reduction at 0.7 % ([2]; 1 h): 3.17
- log10-TCID50 / 0·1 ml after ... min murine norovirus ([2]; residual titre after 5 min): 6.33 ± 0.33 log10-TCID50 / 0·1 ml
- log10-TCID50 / 0·1 ml after ... min murine norovirus ([2]; residual titre after 15 min): 5.67 ± 0.54 log10-TCID50 / 0·1 ml
- log10-TCID50 / 0·1 ml after ... min murine norovirus ([2]; residual titre after 30 min): 5.17 ± 0.56 log10-TCID50 / 0·1 ml
- log10-TCID50 / 0·1 ml after ... min murine norovirus ([2]; residual titre after 60 min): 4.33 ± 0.33 log10-TCID50 / 0·1 ml
- CD50 [3]: ≤ 3.5

SMILES: CC(C)O [isopropanol]
- effectiveness compared with ethanol and n-propanol [4]: three decadic levels below the effectiveness of ethanol and n-propanol
